# Assay results from the OPERA property sets (Mansouri et al. 2018).
compound,measurement,value
c1csc(N2CCNCC2)n1,logP,0.61
Cc1ccccc1N1CCNCC1,logP,2.14
c1cnc(N2CCNCC2)nc1,logP,0.49
c1ccc(N2CCNCC2)cc1,logP,1.1
COc1ccccc1N1CCNCC1,logP,1.67
Clc1ccc(N2CCNCC2)cc1,logP,2.01
Fc1ccc(N2CCNCC2)cc1,logP,1.28
Clc1ccccc1N1CCNCC1,logP,2.13
c1ccc2c(N3CCNCC3)nsc2c1,logP,2.14
c1ccc2nc(N3CCNCC3)ccc2c1,logP,2.04
c1ccc(N2CCNCC2)nc1,logP,0.74
FC(F)(F)c1cccc(N2CCNCC2)c1,logP,2.43
Fc1ccnc(N2CCNCC2)n1,logP,0.97
Clc1cccc(N2CCNCC2)c1,logP,2.11
